The values below come from patent publication US20190127366A1 (LifeSci Pharmaceuticals, Inc., priority 2015, published 2019).

Bounds are passed on as bounds.

By IC50 is commonly meant the concentration needed to halve the response being measured.

T1 sequence (P00746 26-253): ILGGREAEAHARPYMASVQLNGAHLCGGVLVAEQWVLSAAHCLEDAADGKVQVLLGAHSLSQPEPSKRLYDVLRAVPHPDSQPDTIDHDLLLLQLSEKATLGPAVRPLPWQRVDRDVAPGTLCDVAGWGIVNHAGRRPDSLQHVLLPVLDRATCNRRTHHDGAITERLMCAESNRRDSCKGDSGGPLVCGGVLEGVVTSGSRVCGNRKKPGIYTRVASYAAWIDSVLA

The experiment concerns the target T1, human complement factor D (Homo sapiens, UniProt P00746).
T1 construct: purchased R&D Systems 1824-SE
In words: In vitro enzyme inhibition (Z-Lys-SBzl/DTNB absorbance assay). The experiment is classed as biochemical. The settings on record: Complement Factor D (R&D Systems), substrate Z-Lys-SBzl, A405 nm; read-out: CFD IC50. As for the experimental part:
The ability of the compounds disclosed herein to inhibit human complement factor D inhibitory activity was quantified according to the 12-step protocol provided below. • 1. Prepare assay buffer: 50 mM Tris/HCl, pH 7.5, 1 M NaCl. • 2. Dilute 10 mM Complement Factor D inhibitor Nafamostat Mesilate (Selleckchem, Catalog #S1386) solution from 10000 μM to 9.77 μM in 100% DMSO, 8 concentrations. Then dilute the serial concentrations of Nafamostat Mesilate 20-fold in assay buffer. • 3. Add 10 μl diluted Nafamostat Mesilate duplicated into each of the inhibitor control well of a 96-well plate (Corning, Catalog #3599). Final concentrations were 50 μM, 25 μM, 12.5 μM, 6.25 μM, 3.125 μM, 0.781 μM, 0.195 μM and 0.049 μM. 0.5% DMSO was in each well finally. • 4. Dilute 20 mM test compounds from 10000 μM to […] in 100% DMSO, 6-fold dilution, 8 concentrations. Then dilute the serial concentrations of test compounds 20-fold in assay buffer. • 5. Add 10 μl diluted test compounds duplicated into the 96-well plate. Final concentrations were 50 μM, 8.33 μM, 1.39 μM, 0.23 μM, 0.0386 μM, 0.0064 μM, 0.0011 μM and 0.0002 μM. 0.5% DMSO was in each well finally. • 6. Dilute 20 mM substrate Z-Lys-SBzl (Bachem, Cat #M-1300) to 200 μM in assay buffer with 200 μM DTNB(Sigma, Catalog #D8130). • 7. Dilute 738 ng/μL Complement Factor D (R&D Systems, Catalog #1824-SE) to 6.25 ng/μL in assay buffer. Add 40 μl diluted Complement Factor D in the 96-well plate. • 8. Positive control well contains Complement Factor D without test compound. Negative control well contains neither Complement Factor D nor test compound. Using assay buffer, bring the total volume of all controls to 50 μl. • 9. Pre-incubate the plate for 5 min at room temperature. • 10. Add 50 μl of diluted substrate/DTNB mixture into each well. Mix the reagents completely by shaking the plate gently for 30 sec. • 11. For kinetic reading: Immediately start measuring absorbance (A405 nm) continuously and record data every 30sec for 60 min. • 12. Data analysis • Inhibition activity of compound was evaluated by IC50. IC50 was calculated according the dose-response curve of compound fitted using GraphPadPrism with “log(inhibitor)-response (variable slope)” equation. • % inhibition was calculated by using following equation:
[formula] • Mean(NC): The average value of the negative control wells' A405 nm values. • Mean(PC): The average value of the positive control wells' A405 nm values.
The ability of the compounds in Table 2 to inhibit human complement factor D inhibitory activity was determined.
For `NC(=O)c1nn(CC(=O)N2[C@H]3CC[C@H](C3)[C@@H]2C(=O)Nc2cccc(C(F)(F)F)n2)c2ccccc12` [Example 17, 1-(2-oxo-2-((1S,3R,4R)-3-((6-(trifluoromethyl)pyridin-2-yl)carbamoyl)-2-azabicyclo[2.2.1]heptan-2-yl)ethyl)-1H-indazole-3-carboxamide], the IC50 was in the range of 1000 to 10000 nM.

For `NC(=O)c1nn(CC(=O)N2[C@@H]3CC[C@@H](C3)[C@H]2C(=O)NC(CO)c2cccc(Cl)c2F)c2ccccc12` (stereo partly drawn) [Example 138, 1-(2-((1R,3S,4S)-3-((1-(3-chloro-2-fluorophenyl)-2-hydroxyethyl)carbamoyl)-2-azabicyclo[2.2.1]heptan-2-yl)-2-oxoethyl)-1H-indazole-3-carboxamide], the IC50 lay in the range of 1000 to 10000 nM.

For the molecule `NC(=O)c1nn(CC(=O)N2[C@@H]3CC[C@@H](C3)[C@H]2C(=O)Nc2cccc(C3CC3)n2)c2cnccc12` [Example 4, 1-(2-((1R,3S,4S)-3-((6-cyclopropylpyridin-2-yl)carbamoyl)-2-azabicyclo[2.2.1]heptan-2-yl)-2-oxoethyl)-1H-pyrazolo[3,4-c]pyridine-3-carboxamide], the IC50 is 1000 to 10000 nM.

Turning to `NC(=O)c1nc(CC(=O)N2CC[C@H]2C(=O)NCc2cccc(Cl)c2F)n2ccccc12` [Example 191, (S)-3-(2-(2-((3-chloro-2-fluorobenzyl)carbamoyl)azetidin-1-yl)-2-oxoethyl)imidazo[1,5-a]pyridine-1-carboxamide], the IC50 lay in the range of 100 to 1000 nM.

Consider `NC(=O)c1nn(CC(=O)N2CCOC[C@H]2C(=O)Nc2cccc(C(F)(F)F)n2)c2ccccc12` [Example 23, (S)-4-(2-(3-carbamoyl-1H-indazol-1-yl)acetyl)-N-(6-(trifluoromethyl)pyridin-2-yl)morpholine-3-carboxamide], for which the IC50 lay within 1000 to 10000 nM.

For `CC(O)c1nn(CC(=O)N2[C@H](C(=O)Nc3cccc(Cl)n3)C[C@@H]3CCC[C@@H]32)c2ccccc12` (stereo partly drawn) [Example 181, (2S,3aS,6aS)-N-(6-chloropyridin-2-yl)-1-(2-(3-(1-hydroxyethyl)-1H-indazol-1-yl)acetyl)octahydrocyclopenta[b]pyrrole-2-carboxamide], the IC50 was 1000 to 10000 nM.

On to `COC(=O)c1ccc2c(c1)c(C(N)=O)nn2CC(=O)N1[C@@H]2CC[C@@H](C2)[C@H]1C(=O)Nc1cccc(Cl)n1` [Example 78, methyl 3-carbamoyl-1-(2-((1R,3S,4S)-3-((6-chloropyridin-2-yl)carbamoyl)-2-azabicyclo[2.2.1]heptan-2-yl)-2-oxoethyl)-1H-indazole-5-carboxylate], for which the IC50 was 100 to 1000 nM.

On to `NC(=O)c1nn(CC(=O)N2[C@@H]3CC[C@@H](C3)[C@H]2C(=O)Nc2cccc(Cl)c2F)c2cnccc12` [Example 36, 1-(2-((1R,3S,4S)-3-((3-chloro-2-fluorophenyl)carbamoyl)-2-azabicyclo[2.2.1]heptan-2-yl)-2-oxoethyl)-1H-pyrazolo[3,4-c]pyridine-3-carboxamide], for which the IC50 lay in the range of 1000 to 10000 nM.

With `NC(=O)c1cc(Cl)c(F)c(CNC(=O)[C@@H]2[C@H]3CC[C@H](C3)N2C(=O)Cn2nc(C(N)=O)c3ccccc32)c1` [Example 112, 1-(2-((1R,3S,4S)-3-((5-carbamoyl-3-chloro-2-fluorobenzyl)carbamoyl)-2-azabicyclo[2.2.1]heptan-2-yl)-2-oxoethyl)-1H-indazole-3-carboxamide], the IC50 lay within 1000 to 10000 nM.

With `NC(=O)c1nn(CC(=O)N2[C@@H]3CC[C@@H](C3)[C@H]2C(=O)NCc2cc(Br)cc(Cl)c2F)c2ccccc12` [Example 109, 1-(2-((1R,3S,4S)-3-((5-bromo-3-chloro-2-fluorobenzyl)carbamoyl)-2-azabicyclo[2.2.1]heptan-2-yl)-2-oxoethyl)-1H-indazole-3-carboxamide], the IC50 fell in the range of 100 to 1000 nM.

For `CC(O)c1nn(CC(=O)N2CC[C@H]2C(=O)NCc2cccc(Cl)c2F)c2ccccc12` (stereo partly drawn) [Example 193, (2S)-N-(3-chloro-2-fluorobenzyl)-1-(2-(3-(1-hydroxyethyl)-1H-indazol-1-yl)acetyl)azetidine-2-carboxamide], the IC50 lay within 1000 to 10000 nM.

With `NC(=O)c1nn(CC(=O)N2[C@@H]3CC[C@@H](C3)[C@H]2C(=O)Nc2cccc(Cl)n2)c2ccc(F)cc12` [Example 62, 1-(2-((1R,3S,4S)-3-((6-chloropyridin-2-yl)carbamoyl)-2-azabicyclo[2.2.1]heptan-2-yl)-2-oxoethyl)-5-fluoro-1H-indazole-3-carboxamide], the IC50 lay in the range of 100 to 1000 nM.

In the case of `NC(=O)c1nn(CC(=O)N2[C@H](C(=O)O)C[C@H]2C(=O)NCc2cccc(Cl)c2F)c2ccccc12` (relative stereo) [Example 195, trans-1-(2-(3-carbamoyl-1H-indazol-1-yl)acetyl)-4-((3-chloro-2-fluorobenzyl)carbamoyl)azetidine-2-carboxylic acid], the IC50 is 1000 to 10000 nM.

Consider `CC(C)=C(F)C(C)NC(=O)[C@@H]1[C@H]2CC[C@H](C2)N1C(=O)Cn1nc(C(N)=O)c2ccccc21` (stereo partly drawn) [Example 135, 1-(2-((1R,3S,4S)-3-((3-fluoro-4-methylpent-3-en-2-yl)carbamoyl)-2-azabicyclo[2.2.1]heptan-2-yl)-2-oxoethyl)-1H-indazole-3-carboxamide], for which the IC50 was over 10000 nM.

As for `CC(=O)c1nc(CC(=O)N2CC[C@H]2C(=O)NCc2cccc(Cl)c2F)n2ccccc12` [Example 192, (S)-1-(2-(1-acetylimidazo[1,5-a]pyridin-3-yl)acetyl)-N-(3-chloro-2-fluorobenzyl)azetidine-2-carboxamide], the IC50 fell in the range of 1000 to 10000 nM.

For `NC(=O)c1nn(CC(=O)N2[C@@H]3CC[C@@H](C3)[C@H]2C(=O)Nc2cccc(Cl)n2)c2ccc(N)cc12` [Example 75, 5-amino-1-(2-((1R,3S,4S)-3-((6-chloropyridin-2-yl)carbamoyl)-2-azabicyclo[2.2.1]heptan-2-yl)-2-oxoethyl)-1H-indazole-3-carboxamide], the IC50 is 100 to 1000 nM.

In the case of `NC(=O)c1nn(CC(=O)N2[C@@H]3CC[C@@H](C3)[C@H]2C(=O)NCc2c(C(=O)O)ccc(Cl)c2F)c2ccccc12` [Example 117, 2-(((1R,3S,4S)-2-(2-(3-carbamoyl-1H-indazol-1-yl)acetyl)-2-azabicyclo[2.2.1]heptane-3-carboxamido)methyl)-4-chloro-3-fluorobenzoic acid], the IC50 was in the range of 1000 to 10000 nM.

As for `NC(=O)c1cc(Cl)nc(NC(=O)[C@@H]2[C@H]3CC[C@H](C3)N2C(=O)Cn2nc(C(N)=O)c3ccccc32)c1` [Example 106, 1-(2-((1R,3S,4S)-3-((4-carbamoyl-6-chloropyridin-2-yl)carbamoyl)-2-azabicyclo[2.2.1]heptan-2-yl)-2-oxoethyl)-1H-indazole-3-carboxamide], the 50% inhibitory concentration (IC50) was 100 to 1000 nM.

In the case of `NC(=O)c1nn(CC(=O)N2CCCNCC2C(=O)NCc2cccc(Cl)c2F)c2ccccc12` (stereo not shown) [Example 33, 1-(2-(2-((3-chloro-2-fluorobenzyl)carbamoyl)-1,4-diazepan-1-yl)-2-oxoethyl)-1H-indazole-3-carboxamide], the IC50 was over 10000 nM.

Turning to `NC(=O)c1nn(CC(=O)N2CCCCC[C@H]2C(=O)NCc2cccc(Cl)c2F)c2ccccc12` [Example 31, (S)-1-(2-(2-((3-chloro-2-fluorobenzyl)carbamoyl)azepan-1-yl)-2-oxoethyl)-1H-indazole-3-carboxamide], the IC50 fell in the range of 100 to 1000 nM.

`NC(=O)c1nn(CC(=O)N2[C@@H]3CC[C@@H](C3)[C@H]2C(=O)Nc2cccc(C(F)(F)F)n2)c2cnccc12` [Example 9, 1-(2-oxo-2-((1R,3S,4S)-3-((6-(trifluoromethyl)pyridin-2-yl)carbamoyl)-2-azabicyclo[2.2.1]heptan-2-yl)ethyl)-1H-pyrazolo[3,4-c]pyridine-3-carboxamide]: the IC50 lay in the range of 100 to 1000 nM.

As to `CCOC(=O)[C@@H]1C[C@@H](C(=O)NCc2cccc(Cl)c2F)N1C(=O)Cn1nc(C(N)=O)c2ccccc21` (relative stereo) [Example 194, trans-ethyl 1-(2-(3-carbamoyl-1H-indazol-1-yl)acetyl)-4-((3-chloro-2-fluorobenzyl)carbamoyl)azetidine-2-carboxylate], the IC50 was in the range of 100 to 1000 nM.
